SMILES strings stand for the structures. Where a chain is given by its changes, count along the chain named. Like-named read-outs stand apart in the source and are kept apart here.

In one experiment the target is T1, human M1 (Homo sapiens, UniProt P11229).
T1 construct: expressed in transfected cells; host or cells: CHO cells
T1 sequence (P11229 1-460): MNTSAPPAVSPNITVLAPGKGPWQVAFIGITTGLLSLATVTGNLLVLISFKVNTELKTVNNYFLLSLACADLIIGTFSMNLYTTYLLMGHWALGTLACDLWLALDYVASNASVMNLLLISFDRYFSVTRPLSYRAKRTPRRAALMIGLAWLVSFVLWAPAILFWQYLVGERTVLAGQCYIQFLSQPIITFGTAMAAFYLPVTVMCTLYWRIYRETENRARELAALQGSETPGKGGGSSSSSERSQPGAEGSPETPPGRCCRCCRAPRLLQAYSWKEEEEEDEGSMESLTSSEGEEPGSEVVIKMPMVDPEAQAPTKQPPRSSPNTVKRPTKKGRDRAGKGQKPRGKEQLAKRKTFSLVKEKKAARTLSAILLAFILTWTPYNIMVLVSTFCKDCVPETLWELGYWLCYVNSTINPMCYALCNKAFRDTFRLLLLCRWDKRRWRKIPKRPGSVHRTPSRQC
The experiment is described as follows: M1 PAM assay (FLIPR intracellular calcium), human M1. In kind it is cell-based. The method in brief: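 CHO cells expressing M1, Fluo-4AM-loaded, in HEPES/probenecid HBSS pH 7.4, 1% DMSO final. Compounds pre-incubated 2 min for agonist activity versus 30 nM acetylcholine control. For PAM activity, acetylcholine EC20 added after the 2 min pre-incubation, then 2 min more before FLIPR intracellular Ca2+ read.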
(In general: A change in cytosolic calcium serves as a functional read-out for many receptors and channels.)

The target of the next experiment is T2, ratM1 (Rattus norvegicus, UniProt P08482).
T2 construct: expressed in transfected cells; host or cells: CHO cells (stated generally for the assay, not specifically for rat M1)
T2 sequence (P08482 1-460): T1 sequence (P11229 1-460) with A5V, T254S, P309S, R320K, A337G, I413V
The experiment in a line: M1 PAM assay (FLIPR intracellular calcium), rat M1. Format: cell-based.

The mark [1] stands for this setting: CHO human M1 cells, FLIPR Ca2+, with EC20 of acetylcholine, first value of the cell, read-out: hM1 EC50.
Where [2] appears, read: rat M1, FLIPR Ca2+, second value of the cell, read-out: ratM1 EC50.

As a reminder, the EC50 is the midpoint of the concentration-response curve. As for `Cn1cc(-c2ccc(Cn3cc(C(=O)N[C@H]4CCCC[C@@H]4O)c4c(F)c(F)c(F)c(F)c43)c(F)c2)cn1` [Example 26, 4,5,6,7-Tetrafluoro-1-(2-fluoro-4-(1-methyl-1H-pyrazol-4-yl)benzyl)-N-((1S,2S)-2-hydroxycyclohexyl)-1H-indole-3-carboxamide], the results for the EC50 at human M1 (setting [1]) and on ratM1 (setting [2]) were 80.6 nM and 201 nM, respectively.

Regarding `Cn1cc(-c2ccc(Cn3cc(C(=O)N[C@H]4CCCC[C@@H]4O)c4c(F)c(F)c(F)c(F)c43)cn2)cn1` [Example 27, 4,5,6,7-tetrafluoro-N-((1S,2S)-2-hydroxycyclohexyl)-1-((6-(1-methyl-1H-pyrazol-4-yl)pyridine-3-yl)methyl)-1H-indole-3-carboxamide], the EC50 on human M1 (setting [1]) was 56 nM; at ratM1 (setting [2]) it was 80.7 nM.

Consider `Cn1cc(-c2ccc(Cn3cc(C(=O)N[C@H]4CCCC[C@@H]4O)c4c(F)cccc43)cn2)cn1` [Example 30, 4-fluoro-N-((1S,2S)-2-hydroxycyclohexyl)-1-((6-(1-methyl-1H-pyrazol-4-yl)pyridine-3-yl)methyl)-1H-indole-3-carboxamide], for which the 50% effective concentration (EC50) amounted to 13.2 nM at human M1 (setting [1]) and 14.1 nM on ratM1 (setting [2]).

Consider `COc1ccc(Cn2cc(C(=O)N[C@H]3CCCC[C@@H]3O)c3c(F)cccc32)cc1` [Example 31, 4-fluoro-N-((1S,2S)-2-hydroxycyclohexyl)-1-(4-methoxybenzyl)-1H-indole-3-carboxamide], for which the EC50 on human M1 came out at 90.6 nM; at ratM1, 160 nM.

As for `N#Cc1ccc(Cn2cc(C(=O)N[C@H]3CCCC[C@@H]3O)c3c(F)cccc32)cc1` [Example 32, 1-(4-cyanobenzyl)-4-fluoro-N-((1S,2S)-2-hydroxycyclohexyl)-1H-indole-3-carboxamide], the values for the EC50 on human M1 and on ratM1 were 105 nM and 223 nM, respectively.

`COc1ccc(Cn2cc(C(=O)N[C@H]3CCCC[C@@H]3O)c3c(F)cccc32)cc1F` [Example 33, 4-fluoro-1-(3-fluoro-4-methoxybenzyl)-N-((1S,2S)-2-hydroxycyclohexyl)-1H-indole-3-carboxamide]: the values for the EC50 at human M1 and at ratM1 were 104 nM and 222 nM, respectively.

With `Cc1cn(-c2ccc(Cn3cc(C(=O)N[C@H]4CCCC[C@@H]4O)c4c(F)cccc43)cc2)cn1` [Example 36, 4-fluoro-N-((1S,2S)-2-hydroxycyclohexyl)-1-(4-(4-methyl-1H-imidazol-1-yl)benzyl)-1H-indole-3-carboxamide], the EC50 was found to be 15.5 nM at human M1 (setting [1]) and 25.9 nM at ratM1 (setting [2]).

In the case of `Cn1ncc2cc(Cn3cc(C(=O)N[C@H]4CCCC[C@@H]4O)c4c(F)cccc43)ccc21` [Example 37, 4-fluoro-N-((1S,2S)-2-hydroxycyclohexyl)-1-((1-methyl-1H-indazol-5-yl)methyl)-1H-indole-3-carboxamide], the values for the EC50 on human M1 and on ratM1 were 43.8 nM and 39.5 nM, respectively.

As for `O=C(N[C@H]1CCCC[C@@H]1O)c1cn(Cc2ccc(Cl)cc2)c2cccc(F)c12` [Example 38, 1-(4-chlorobenzyl)-4-fluoro-N-((1S,2S)-2-hydroxycyclohexyl)-1H-indole-3-carboxamide], the results for the EC50 at human M1 and at ratM1 were 131 nM and 382 nM, respectively.

For `O=C(N[C@H]1CCCC[C@@H]1O)c1cn(Cc2ccc(F)c(F)c2)c2cccc(F)c12` [Example 41, 1-(3,4-difluorobenzyl)-4-fluoro-N-((1S,2S)-2-hydroxycyclohexyl)-1H-indole-3-carboxamide], the figures for the EC50 on human M1 and at ratM1 were 219 nM and 456 nM, respectively.

Take `O=C(N[C@H]1CCCC[C@@H]1O)c1cn(Cc2ccc(F)cc2)c2cccc(F)c12` [Example 42, 4-fluoro-1-(4-fluorobenzyl)-N-((1S,2S)-2-hydroxycyclohexyl)-1H-indole-3-carboxamide]: the EC50 at human M1 is 110 nM; on ratM1 it was 200 nM.

`O=C(N[C@H]1CCCC[C@@H]1O)c1cn(Cc2cc(F)cc(F)c2)c2cccc(F)c12` [Example 43, 1-(3,5-difluorobenzyl)-4-fluoro-N-((1S,2S)-2-hydroxycyclohexyl)-1H-indole-3-carboxamide]: the EC50 at human M1 came to 488 nM; at ratM1, 632 nM.

For `Cn1cc(-c2ccc(Cn3cc(C(=O)N[C@H]4CCCC[C@@H]4O)c4c(F)cccc43)cc2)cn1` [Example 44, 4-fluoro-N-((1S,2S)-2-hydroxycyclohexyl)-1-(4-(1-methyl-1H-pyrazol-4-yl)benzyl)-1H-indole-3-carboxamide], the EC50 on human M1 (setting [1]) turned out to be 6 nM; at ratM1 (setting [2]), 9.8 nM.

For the compound `Cc1ccc(F)c2c(C(=O)N[C@H]3CCCC[C@@H]3O)cn(Cc3ccc(-c4cnn(C)c4)cc3F)c12` [Example 45, 4-fluoro-1-(2-fluoro-4-(1-methyl-1H-pyrazol-4-yl)benzyl)-N-((1S,2S)-2-hydroxycyclohexyl)-7-methyl-1H-indole-3-carboxamide], the EC50 at human M1 (setting [1]) stood at 36.1 nM; on ratM1 (setting [2]), 74.1 nM.

On to `Cc1ccc(F)c2c(C(=O)N[C@H]3CCCC[C@@H]3O)cn(Cc3ccc(-c4cnn(C)c4)cc3)c12` [Example 46, 4-fluoro-N-((1S,2S)-2-hydroxycyclohexyl)-7-methyl-1-(4-(1-methyl-1H-pyrazol-4-yl)benzyl)-1H-indole-3-carboxamide], for which the results for the EC50 on human M1 (setting [1]) and at ratM1 (setting [2]) were 10.3 nM and 22.2 nM, respectively.

`O=C(N[C@H]1CCCC[C@@H]1O)c1cn(Cc2ccccc2)c2cccc(F)c12` [Example 47, 1-benzyl-4-fluoro-N-((1S,2S)-2-hydroxycyclohexyl)-1H-indole-3-carboxamide]: the EC50 on human M1 came to 118 nM; on ratM1 it was 393 nM.

On to `Cc1ccc(F)c2c(C(=O)NC3CCCOC3)cn(Cc3ccc(-c4cnn(C)c4)cc3)c12` (stereo not drawn) [Example 48, 4-fluoro-7-methyl-1-(4-(1-methyl-1H-pyrazol-4-yl)benzyl)-N-(tetrahydro-2H-pyran-3-yl)-1H-indole-3-carboxamide], for which the EC50 is 251 nM on human M1 (setting [1]) and 528 nM at ratM1 (setting [2]).

`Cc1ccc(F)c2c(C(=O)NC3CCOCC3)cn(Cc3ccc(-c4cnn(C)c4)cc3)c12` [Example 49, 4-fluoro-7-methyl-1-(4-(1-methyl-1H-pyrazol-4-yl)benzyl)-N-(tetrahydro-2H-pyran-4-yl)-1H-indole-3-carboxamide]: the results for the EC50 at human M1 (setting [1]) and on ratM1 (setting [2]) were 44.5 nM and 52.5 nM, respectively.

`Cc1ccn(-c2ccc(Cn3cc(C(=O)N[C@H]4CCCC[C@@H]4O)c4c(F)cccc43)cc2)n1` [Example 50, 4-fluoro-N-((1S,2S)-2-hydroxycyclohexyl)-1-(4-(3-methyl-1H-pyrazol-1-yl)benzyl)-1H-indole-3-carboxamide]: the EC50 at human M1 (setting [1]) was 18.3 nM; on ratM1 (setting [2]) it was 13.9 nM.

Turning to `Cn1cc(-c2ccc(Cn3cc(C(=O)N[C@H]4CCCC[C@@H]4O)c4c(F)c(F)c(F)c(F)c43)cc2)cn1` [Example 53, 4,5,6,7-tetrafluoro-N-((1S,2S)-2-hydroxycyclohexyl)-1-(4-(1-methyl-1H-pyrazol-4-yl)benzyl)-1H-indole-3-carboxamide], the values for the EC50 at human M1 (setting [1]) and on ratM1 (setting [2]) were 44.1 nM and 47.5 nM, respectively.

In the case of `Cn1cnc2cc(Cn3cc(C(=O)N[C@H]4CCCC[C@@H]4O)c4c(F)cccc43)ccc21` [Example 56, 4-fluoro-N-((1S,2S)-2-hydroxycyclohexyl)-1-((1-methyl-1H-benzo[d]yridine-5-yl)methyl)-1H-indole-3-carboxamide], the results for the EC50 on human M1 and at ratM1 were 136 nM and 285 nM, respectively.

As for `Cn1cc(-c2ccc(Cn3cc(C(=O)N[C@H]4CCCC[C@@H]4O)c4c(F)c(F)ccc43)cn2)cn1` [Example 58, 4,5-difluoro-N-((1S,2S)-2-hydroxycyclohexyl)-1-((6-(1-methyl-1H-pyrazol-4-yl)pyridine-3-yl)methyl)-1H-indole-3-carboxamide], the EC50 on human M1 (setting [1]) turned out to be 174 nM; on ratM1 (setting [2]) it was 10000 nM.

As to `CNC(=O)c1ccc(Cn2cc(C(=O)N[C@H]3CCCC[C@@H]3O)c3c(F)cccc32)cc1` [Example 59, 4-fluoro-N-((1S,2S)-2-hydroxycyclohexyl)-1-(4-(methylcarbamoyl)benzyl)-1H-indole-3-carboxamide], the EC50 on human M1 (setting [1]) is 4.33 nM; at ratM1 (setting [2]) it was 4.35 nM.

On to `Cc1cn(-c2ccc(Cn3cc(C(=O)N[C@H]4CCCC[C@@H]4O)c4c(F)c(F)ccc43)cc2)cn1` [Example 60, 4,5-difluoro-N-((1S,2S)-2-hydroxycyclohexyl)-1-(4-(4-methyl-1H-imidazol-1-yl)benzyl)-1H-indole-3-carboxamide], for which the EC50 at human M1 (setting [1]) is 101 nM; on ratM1 (setting [2]), 183 nM.
